Laboratory results: ChEMBL document CHEMBL1201862, “PubChem BioAssay data set” (2004)
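Step 1: Grow cells in 96-well plates. Step 2: Expose to compound for 48 hours at 5 concentrations. Step 3: Interpolate endpoints linearly; if unreached, use highest concentration. GI50 is the concentration that inhibits growth by half.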 Activity calls are given as the source filed them. Rule as the data show it: active = GI50 up to about 1.1 µM and inactive = higher.

Columns and labels:
Assay in all cases: NCI anticancer screen, dose series, 48 h
[1] = system: ACHN
[2] = system: HL-60
[3] = system: NCI-H522
[4] = system: NCI-H460
[5] = system: RXF 393
[6] = system: K562
[7] = system: LOX IMVI
[8] = system: UACC-257
[9] = system: HCT-15
[10] = system: SK-MEL-28
[11] = system: HOP-18
[12] = system: OVCAR-5
[13] = system: IGROV-1
[14] = system: M14
[15] = system: HT-29
[16] = system: BT-549
[17] = system: MDA-MB-435
[18] = system: Hs-578T
[19] = system: T47D

| SMILES | GI50 [1] | GI50 [2] | GI50 [3] | GI50 [4] | GI50 [5] | GI50 [6] | GI50 [7] | GI50 [8] | GI50 [9] | GI50 [10] | GI50 [11] | GI50 [12] | GI50 [13] | GI50 [14] | GI50 [15] | GI50 [16] | GI50 [17] | GI50 [18] | GI50 [19] |
| --- | --- | --- | --- | --- | --- | --- | --- | --- | --- | --- | --- | --- | --- | --- | --- | --- | --- | --- | --- |
| NC1C2(CCCCCC2)NC(=O)C12CCCCCC2 (stereo unspecified) | > 100 µM (inactive) | > 100 µM (inactive) | > 100 µM (inactive) | > 100 µM (inactive) | > 100 µM (inactive) | > 100 µM (inactive) | > 100 µM (inactive) | > 100 µM (inactive) | > 100 µM | > 100 µM (inactive) | > 100 µM (inactive) | > 100 µM (inactive) | > 100 µM (inactive) | > 100 µM (inactive) | > 100 µM (inactive) |  |  |  |  |
| Cc1nc2c(o1)C(=O)c1ccccc1/C2=N\c1ccccc1 | 3.18 µM (inactive) | 2.42 µM (inactive) | 1.86 µM (inactive) | 5.66 µM (inactive) | 1.57 µM (inactive) | 2.62 µM (inactive) | 1.59 µM (inactive) | 2.05 µM (inactive) | 2.25 µM | 2 µM (inactive) | 1.85 µM (inactive) | 5.85 µM (inactive) | 7.98 µM (inactive) | 0.841 µM (active) | 10.2 µM (inactive) | 1.68 µM (inactive) | 0.352 µM (active) | 1.62 µM (inactive) | 2.52 µM (inactive) |
| O=C(c1ccccc1)C1OC12C(=O)Nc1c(Cl)cc(Cl)cc12 (stereo unspecified) | 23.8 µM (inactive) | 16.4 µM (inactive) | 17.5 µM (inactive) | 30.3 µM (inactive) | 24.4 µM (inactive) | 15.3 µM (inactive) | 23.4 µM (inactive) | > 100 µM (inactive) | 24.3 µM | > 100 µM (inactive) | > 54.7 µM (inactive) | > 100 µM (inactive) | > 59.4 µM (inactive) | 31.5 µM (inactive) | 33.6 µM (inactive) |  |  |  |  |
| O=C1NC(=O)c2c1n(Cc1ccccc1)c(=O)n2Cc1ccccc1 | > 100 µM (inactive) | 87.7 µM (inactive) | > 100 µM (inactive) | 86.7 µM (inactive) | > 100 µM (inactive) | 35.8 µM (inactive) | > 100 µM (inactive) | > 100 µM (inactive) | 77.8 µM | > 100 µM (inactive) | > 100 µM (inactive) | > 100 µM (inactive) | > 100 µM (inactive) | > 100 µM (inactive) | > 100 µM (inactive) |  |  |  |  |
| C[N+]1=c2c3cccc4cccc(c(=O)n2CCC1)c43 | 22.4 µM (inactive) | 4.36 µM (inactive) | 15.8 µM (inactive) | 18.2 µM (inactive) | 22.1 µM (inactive) | 9.02 µM (inactive) | 15.3 µM (inactive) | 17.3 µM (inactive) | 35.6 µM | 19.4 µM (inactive) | 53.8 µM (inactive) | 17.8 µM (inactive) | 36 µM (inactive) | 17.2 µM (inactive) | 20.1 µM (inactive) |  |  |  |  |
| C=C(C[N+](C)(C)C)N/N=C/c1oc(-c2ccc(OC)c(OC)c2)c(-c2ccc(OC)c(OC)c2)c1[N+](=O)[O-] | 15.4 µM (inactive) | 8.63 µM (inactive) | 23.2 µM (inactive) | 18.5 µM (inactive) | 15.2 µM (inactive) | 19.1 µM (inactive) | 15 µM (inactive) | 20.2 µM (inactive) | 17.9 µM | 18.3 µM (inactive) | 22.1 µM (inactive) | 19.1 µM (inactive) | 18.1 µM (inactive) | 22.1 µM (inactive) | 16.9 µM (inactive) |  |  |  |  |
| O=C1c2c(O)cccc2C(C(=O)CCCCC(=O)C2c3cccc(O)c3C(=O)c3c(O)cccc32)c2cccc(O)c21 | 0.729 µM (active) | 0.485 µM (active) | 0.543 µM (active) | 0.403 µM (active) |  | 0.661 µM (active) | 0.668 µM (active) | 0.526 µM (active) | 0.662 µM | 0.877 µM (active) | 0.652 µM (active) | 0.528 µM (active) |  | 0.897 µM (active) | 0.641 µM (active) | 0.603 µM (active) | 0.809 µM (active) | 0.176 µM (active) | 0.442 µM (active) |
| CCOC(=O)c1[nH]c(CN(C)Cc2[nH]c(C(=O)OCC)c(C)c2C(=O)OCc2ccccc2)c(C(=O)OCc2ccccc2)c1C | 18.4 µM (inactive) | 3.96 µM (inactive) | 6.87 µM (inactive) | 5.58 µM (inactive) | 3.87 µM (inactive) | 6.17 µM (inactive) | 4.75 µM (inactive) | 21.4 µM (inactive) | 8.3 µM | 16.9 µM (inactive) | > 100 µM (inactive) | 6.81 µM (inactive) | 27.4 µM (inactive) | 4.99 µM (inactive) | 2.77 µM (inactive) |  |  |  |  |
